Experimental findings from US20240246942A1, “KINASE INHIBITORS FOR THE TREATMENT OF NEURODEGENERATIVE DISEASES” (priority 2020, published 2024) are described below.

Holding throughout (test): biochemical
Test [1] addresses T1, panel of 374 wild-type kinases (Homo sapiens, UniProt Q16288).
T1 construct: purchased Reaction Biology Corporation
Particulars: for remaining activity at 5 µM: read-out: % Enzyme Activity (relative to DMSO controls), kinase TRKC.

The target in test [2] is T2, panel of 374 wild-type kinases (Homo sapiens, UniProt P24941).
T2 construct: purchased Reaction Biology Corporation

Test [3] addresses T3, panel of 374 wild-type kinases (Homo sapiens, UniProt P07949).
T3 construct: purchased Reaction Biology Corporation
Particulars: read-out: % Enzyme Activity (relative to DMSO controls), kinase RET.

Test [4] has as its target T4, panel of 374 wild-type kinases (Homo sapiens, UniProt Q8TF76).
T4 construct: purchased Reaction Biology Corporation
T4 sequence (Q8TF76 1-798): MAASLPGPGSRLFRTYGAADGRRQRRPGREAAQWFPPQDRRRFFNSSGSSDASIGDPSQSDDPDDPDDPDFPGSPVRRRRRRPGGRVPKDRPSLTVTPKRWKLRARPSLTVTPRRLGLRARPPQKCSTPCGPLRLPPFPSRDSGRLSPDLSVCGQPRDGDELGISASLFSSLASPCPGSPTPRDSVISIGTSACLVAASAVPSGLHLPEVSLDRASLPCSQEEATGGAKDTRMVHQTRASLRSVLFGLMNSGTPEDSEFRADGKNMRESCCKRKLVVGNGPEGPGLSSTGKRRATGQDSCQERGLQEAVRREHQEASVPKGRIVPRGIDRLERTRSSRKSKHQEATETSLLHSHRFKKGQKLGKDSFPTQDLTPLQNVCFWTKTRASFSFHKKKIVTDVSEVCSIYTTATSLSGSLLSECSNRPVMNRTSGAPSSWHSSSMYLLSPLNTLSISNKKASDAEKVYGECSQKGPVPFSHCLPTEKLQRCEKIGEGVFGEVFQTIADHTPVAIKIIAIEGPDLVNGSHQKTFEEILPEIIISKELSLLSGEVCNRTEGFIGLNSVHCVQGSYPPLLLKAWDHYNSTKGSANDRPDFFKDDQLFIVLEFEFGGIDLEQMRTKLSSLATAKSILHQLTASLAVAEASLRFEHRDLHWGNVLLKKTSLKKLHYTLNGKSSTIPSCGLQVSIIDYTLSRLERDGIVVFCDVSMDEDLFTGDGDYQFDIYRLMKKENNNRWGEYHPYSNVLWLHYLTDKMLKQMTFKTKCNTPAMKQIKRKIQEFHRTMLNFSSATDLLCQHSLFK
Particulars: read-out: % Enzyme Activity (relative to DMSO controls), Haspin.

In test [5] the target is T5, panel of 374 wild-type kinases (Homo sapiens, UniProt P53778).
T5 construct: purchased Reaction Biology Corporation
T5 sequence (P53778 1-367): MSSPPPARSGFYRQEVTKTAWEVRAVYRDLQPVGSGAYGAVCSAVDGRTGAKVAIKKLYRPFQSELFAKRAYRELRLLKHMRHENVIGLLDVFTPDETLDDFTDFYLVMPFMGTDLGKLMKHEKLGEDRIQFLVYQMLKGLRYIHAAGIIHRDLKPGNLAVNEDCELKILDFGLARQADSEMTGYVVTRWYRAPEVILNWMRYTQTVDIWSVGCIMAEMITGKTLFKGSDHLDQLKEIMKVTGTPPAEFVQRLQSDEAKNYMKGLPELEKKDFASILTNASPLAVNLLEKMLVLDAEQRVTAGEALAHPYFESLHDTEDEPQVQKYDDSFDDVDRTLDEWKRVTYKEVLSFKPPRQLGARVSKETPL
Particulars: read-out: % Enzyme Activity (relative to DMSO controls), kinase P38g.

Test [6] has as its target T6, panel of 374 wild-type kinases (Homo sapiens, UniProt P49840).
T6 construct: purchased Reaction Biology Corporation
Particulars: read-out: % Enzyme Activity (relative to DMSO controls), GSK3a.

The target of test [7] is T7, panel of 374 wild-type kinases (Homo sapiens, UniProt Q14164).
T7 construct: purchased Reaction Biology Corporation
T7 sequence (Q14164 1-716): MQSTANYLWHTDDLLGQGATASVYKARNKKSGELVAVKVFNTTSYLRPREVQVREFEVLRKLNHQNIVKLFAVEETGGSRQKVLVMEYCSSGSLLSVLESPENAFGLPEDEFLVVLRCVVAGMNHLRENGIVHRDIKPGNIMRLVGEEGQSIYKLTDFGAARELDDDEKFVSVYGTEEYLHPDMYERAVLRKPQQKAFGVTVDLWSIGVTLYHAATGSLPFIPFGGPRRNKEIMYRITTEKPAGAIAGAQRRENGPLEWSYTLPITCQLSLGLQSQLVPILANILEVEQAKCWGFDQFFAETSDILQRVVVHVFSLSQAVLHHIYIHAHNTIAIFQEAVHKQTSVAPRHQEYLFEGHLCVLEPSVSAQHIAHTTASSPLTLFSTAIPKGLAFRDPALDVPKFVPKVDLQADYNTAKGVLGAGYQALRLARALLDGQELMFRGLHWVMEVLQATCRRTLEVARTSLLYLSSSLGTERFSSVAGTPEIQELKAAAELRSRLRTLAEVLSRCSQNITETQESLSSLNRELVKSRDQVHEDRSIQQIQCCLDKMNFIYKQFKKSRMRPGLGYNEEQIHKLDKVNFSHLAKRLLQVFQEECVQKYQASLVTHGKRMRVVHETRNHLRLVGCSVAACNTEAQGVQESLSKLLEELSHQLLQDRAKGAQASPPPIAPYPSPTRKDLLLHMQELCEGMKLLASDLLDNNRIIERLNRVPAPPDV
Particulars: read-out: % Enzyme Activity (relative to DMSO controls), IKKe/IKBKE.

Test [8] addresses T8, panel of 374 wild-type kinases (Homo sapiens, UniProt Q9H1R3).
T8 construct: purchased Reaction Biology Corporation
Conditions: read-out: % Enzyme Activity (relative to DMSO controls), MLCK2/MYLK2.

Test [9] deals with T9, panel of 374 wild-type kinases (Homo sapiens, UniProt P54756).
T9 construct: purchased Reaction Biology Corporation
Particulars: read-out: % Enzyme Activity (relative to DMSO controls), EPHA5.

Where [10] appears, read: read-out: % Enzyme Activity (relative to DMSO controls), CDK2/Cyclin A1.
Where [11] appears, read: read-out: % Enzyme Activity (relative to DMSO controls), CDK2/cyclin A.
[12] abbreviates: read-out: % Enzyme Activity (relative to DMSO controls), CDK2/cyclin E2.
Setting [13] is: read-out: % Enzyme Activity (relative to DMSO controls), CDK2/cyclin E.
Where [14] appears, read: read-out: % Enzyme Activity (relative to DMSO controls), CDK2/cyclin O.

Read-outs that look alike come from different tables or passages of the source.

T9 sequence (P54756 25-1037): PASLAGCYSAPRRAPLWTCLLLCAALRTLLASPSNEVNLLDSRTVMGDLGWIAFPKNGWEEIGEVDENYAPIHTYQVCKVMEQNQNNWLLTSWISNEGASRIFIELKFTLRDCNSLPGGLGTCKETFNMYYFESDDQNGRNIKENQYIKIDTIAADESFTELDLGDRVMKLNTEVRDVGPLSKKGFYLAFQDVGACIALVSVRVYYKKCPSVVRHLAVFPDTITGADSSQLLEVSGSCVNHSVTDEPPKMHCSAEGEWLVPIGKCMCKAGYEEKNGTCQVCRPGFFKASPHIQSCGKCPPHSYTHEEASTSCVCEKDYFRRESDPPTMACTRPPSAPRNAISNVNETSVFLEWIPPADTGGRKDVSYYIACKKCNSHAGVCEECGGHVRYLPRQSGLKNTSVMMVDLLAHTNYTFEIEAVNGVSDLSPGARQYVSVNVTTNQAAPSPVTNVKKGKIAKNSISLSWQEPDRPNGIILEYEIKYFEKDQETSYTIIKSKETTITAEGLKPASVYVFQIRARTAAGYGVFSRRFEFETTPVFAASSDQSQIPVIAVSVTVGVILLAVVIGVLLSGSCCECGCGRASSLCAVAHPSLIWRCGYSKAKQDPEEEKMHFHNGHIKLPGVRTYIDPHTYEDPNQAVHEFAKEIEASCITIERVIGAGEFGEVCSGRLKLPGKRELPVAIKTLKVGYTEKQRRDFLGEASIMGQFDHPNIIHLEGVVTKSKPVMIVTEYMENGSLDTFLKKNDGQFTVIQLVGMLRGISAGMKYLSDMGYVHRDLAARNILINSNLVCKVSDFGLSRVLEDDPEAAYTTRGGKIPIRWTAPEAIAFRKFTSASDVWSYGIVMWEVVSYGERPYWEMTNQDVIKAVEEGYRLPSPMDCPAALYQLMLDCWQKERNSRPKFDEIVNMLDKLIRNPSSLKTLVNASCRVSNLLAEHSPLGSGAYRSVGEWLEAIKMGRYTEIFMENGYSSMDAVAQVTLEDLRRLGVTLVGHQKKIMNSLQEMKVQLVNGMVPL
T8 sequence (Q9H1R3 whole entry): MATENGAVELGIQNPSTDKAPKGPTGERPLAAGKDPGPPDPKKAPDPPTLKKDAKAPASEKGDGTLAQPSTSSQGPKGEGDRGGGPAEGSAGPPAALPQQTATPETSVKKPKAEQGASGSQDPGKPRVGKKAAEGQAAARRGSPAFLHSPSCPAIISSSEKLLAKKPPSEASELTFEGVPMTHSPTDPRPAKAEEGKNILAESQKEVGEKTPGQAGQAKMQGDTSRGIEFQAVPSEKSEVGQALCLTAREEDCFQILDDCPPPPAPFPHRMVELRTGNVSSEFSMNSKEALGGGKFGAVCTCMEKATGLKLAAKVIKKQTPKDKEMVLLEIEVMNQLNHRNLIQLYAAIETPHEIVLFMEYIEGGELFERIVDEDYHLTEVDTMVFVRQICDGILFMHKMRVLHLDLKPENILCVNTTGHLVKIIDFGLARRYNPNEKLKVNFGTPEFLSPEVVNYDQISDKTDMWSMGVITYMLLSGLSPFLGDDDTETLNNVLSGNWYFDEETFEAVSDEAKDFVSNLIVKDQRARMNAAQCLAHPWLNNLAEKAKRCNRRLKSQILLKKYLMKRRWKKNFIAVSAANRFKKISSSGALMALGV
T6 sequence (P49840 whole entry): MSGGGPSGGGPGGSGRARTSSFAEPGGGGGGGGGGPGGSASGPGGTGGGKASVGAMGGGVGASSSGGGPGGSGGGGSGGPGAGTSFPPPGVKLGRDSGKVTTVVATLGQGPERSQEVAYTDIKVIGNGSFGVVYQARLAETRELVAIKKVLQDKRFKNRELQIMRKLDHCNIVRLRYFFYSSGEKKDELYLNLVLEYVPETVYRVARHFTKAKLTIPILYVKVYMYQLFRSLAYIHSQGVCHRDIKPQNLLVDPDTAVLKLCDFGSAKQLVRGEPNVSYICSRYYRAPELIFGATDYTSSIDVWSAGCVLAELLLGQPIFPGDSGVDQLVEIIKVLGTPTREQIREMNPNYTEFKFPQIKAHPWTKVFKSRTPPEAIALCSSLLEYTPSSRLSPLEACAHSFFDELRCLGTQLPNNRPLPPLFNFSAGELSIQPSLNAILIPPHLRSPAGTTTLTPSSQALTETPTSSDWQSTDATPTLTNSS
T3 sequence (P07949 29-1114): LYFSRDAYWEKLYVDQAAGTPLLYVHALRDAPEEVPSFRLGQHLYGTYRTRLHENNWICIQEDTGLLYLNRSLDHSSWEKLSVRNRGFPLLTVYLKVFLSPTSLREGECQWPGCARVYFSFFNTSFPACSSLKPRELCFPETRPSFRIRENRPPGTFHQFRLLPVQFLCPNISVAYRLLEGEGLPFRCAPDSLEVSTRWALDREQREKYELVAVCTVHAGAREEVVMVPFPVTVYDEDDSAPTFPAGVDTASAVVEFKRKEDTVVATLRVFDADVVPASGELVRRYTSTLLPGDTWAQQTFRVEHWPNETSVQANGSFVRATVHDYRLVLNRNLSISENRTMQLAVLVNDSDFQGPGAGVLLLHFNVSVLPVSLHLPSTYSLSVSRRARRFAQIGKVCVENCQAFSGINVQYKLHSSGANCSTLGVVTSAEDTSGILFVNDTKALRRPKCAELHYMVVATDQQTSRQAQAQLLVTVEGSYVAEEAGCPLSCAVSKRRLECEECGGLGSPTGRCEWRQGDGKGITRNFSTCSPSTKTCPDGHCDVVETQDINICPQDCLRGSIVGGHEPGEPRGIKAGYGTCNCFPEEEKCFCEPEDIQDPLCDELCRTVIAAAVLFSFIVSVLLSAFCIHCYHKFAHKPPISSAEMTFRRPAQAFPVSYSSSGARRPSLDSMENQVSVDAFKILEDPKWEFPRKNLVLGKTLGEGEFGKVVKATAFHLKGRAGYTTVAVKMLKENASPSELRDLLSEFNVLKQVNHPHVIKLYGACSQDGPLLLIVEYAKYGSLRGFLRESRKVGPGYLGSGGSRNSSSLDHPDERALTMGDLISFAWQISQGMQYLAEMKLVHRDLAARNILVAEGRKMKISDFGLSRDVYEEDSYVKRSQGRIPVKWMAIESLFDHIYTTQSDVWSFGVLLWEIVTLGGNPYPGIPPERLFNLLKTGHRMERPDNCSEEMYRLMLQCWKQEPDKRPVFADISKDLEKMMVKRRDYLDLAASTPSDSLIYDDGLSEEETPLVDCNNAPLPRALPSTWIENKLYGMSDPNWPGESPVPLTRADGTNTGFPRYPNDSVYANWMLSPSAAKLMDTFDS
T1 sequence (Q16288 32-839): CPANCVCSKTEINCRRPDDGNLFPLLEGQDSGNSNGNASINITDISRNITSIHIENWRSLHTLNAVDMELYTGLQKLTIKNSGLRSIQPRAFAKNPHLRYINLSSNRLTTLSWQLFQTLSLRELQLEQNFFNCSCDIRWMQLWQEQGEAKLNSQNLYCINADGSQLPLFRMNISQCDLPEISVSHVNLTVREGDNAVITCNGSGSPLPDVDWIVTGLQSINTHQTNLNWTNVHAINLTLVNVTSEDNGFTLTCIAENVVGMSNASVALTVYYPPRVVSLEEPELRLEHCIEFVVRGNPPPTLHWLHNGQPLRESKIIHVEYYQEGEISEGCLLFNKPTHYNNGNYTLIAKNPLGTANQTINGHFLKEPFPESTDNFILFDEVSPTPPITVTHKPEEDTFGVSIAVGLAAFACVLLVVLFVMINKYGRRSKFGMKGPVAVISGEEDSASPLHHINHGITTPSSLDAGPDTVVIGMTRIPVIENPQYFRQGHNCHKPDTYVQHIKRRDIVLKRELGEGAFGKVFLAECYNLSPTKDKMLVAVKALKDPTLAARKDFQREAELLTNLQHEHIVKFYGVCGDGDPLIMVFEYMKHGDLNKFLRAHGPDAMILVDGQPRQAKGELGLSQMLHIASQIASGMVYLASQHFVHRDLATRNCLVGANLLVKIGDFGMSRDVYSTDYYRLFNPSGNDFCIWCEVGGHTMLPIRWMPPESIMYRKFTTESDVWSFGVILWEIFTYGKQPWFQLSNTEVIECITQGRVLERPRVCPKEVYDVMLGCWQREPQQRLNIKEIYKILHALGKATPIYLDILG

Turning to `Cc1sc(C(=O)NC2COC2)cc1-n1cc(NC(=O)Nc2c(F)cccc2Cl)cn1` [Compound 27, 4-(4-(3-(2-chloro-6-fluorophenyl)ureido)-1H-pyrazol-1-yl)-5-methyl-N-(oxetan-3-yl)thiophene-2-carboxamide], the remaining activity at 10 µM is 86% in test [1] (kinase TRKC, 10 uM, read-out: % Enzyme Activity (relative to DMSO controls)); 111% in test [2] (setting [10]); 98.3% in [2] (setting [11]); 90.8% in test [2] (setting [12]); 106% in test [2] (setting [13]); 105% in test [2] (setting [14]). Besides, the remaining activity at 10 µM is 113% in test [3] (10 uM); 92.4% in [4] (10 uM); 90.5% in test [5] (10 uM); 128% in test [6] (10 uM); 116% in test [7] (10 uM); 78.7% in test [8] (10 uM). For the same molecule, in test [9] (10 uM), the remaining activity at 10 µM was 106%.

Regarding `O=C(Nc1cnn(-c2csc(C(=O)NC3COC3)c2)c1)Nc1c(F)cccc1Cl` [Compound 25, 4-(4-(3-(2-chloro-6-fluorophenyl)ureido)-1H-pyrazol-1-yl)-N-(oxetan-3-yl)thiophene-2-carboxamide], the remaining activity at 5 µM in [1] was 38.6%; in test [2] (setting [10]), 94.2%; in test [2] (setting [11]), 93.8%; in test [2] (setting [12]), 98.9%; in test [2] (setting [13]) it was 94.6%; in [2] (setting [14]), 94.1%. The remaining activity at 5 µM in [3] was found to be 98.1%; in test [4], 111%; in [5] it was 98.3%; in [6], 93.5%; in [7], 96.8%; in test [8], 83.5%. In test [9], the remaining activity at 5 µM turned out to be 95%.

As to `O=C(Nc1cnn(-c2csc(C(=O)NC3COC3)c2)c1)Nc1ccccc1Cl` [Compound 17, 4-(4-(3-(2-chlorophenyl)ureido)-1H-pyrazol-1-yl)-N-(oxetan-3-yl)thiophene-2-carboxamide], the remaining activity at 5 µM in [1] came out at 64.3%; in test [2] (setting [10]), 106%; in [2] (setting [11]) it was 93.6%; in [2] (setting [12]), 107%; in [2] (setting [13]), 99%; in test [2] (setting [14]), 93.2%. For the same molecule, the remaining activity at 5 µM came to 97.8% in test [3]; 112% in [4]; 99.4% in [5]; 97.4% in test [6]; 110% in test [7]; 89.9% in test [8]. Moreover, the remaining activity at 5 µM in test [9] is 96.9%.
